Where “and” joins values, the source holds several entries; their conditions need not be identical. Equal entries are not always repeated.
System: β1 integrin
Assay: Adhesion of activated, β1 integrin-expressing U937 cells to human fibronectin
Assay type: cell-based
Conditions: for Percent Cells Bound: single well
Experimental: U937 cells, a human monocyte-like, histiocytic lymphoma cell line, was acquired from American Type Culture Collection (ATCC No. CRL-1593). The cells were grown in the culture media described in Example I, materials. Cells were subcultured when the cell density was approximately 1×10^6 cells per ml. The β1 integrins on U937 cells were activated to bind to fibronectin by the addition of PMN Buffer, described in Example I. The human fibronectin (Gibco, No. XOO1) was diluted to 3.5 μg/ml with dPBS. A 1% Bovine Serum Albumin (BSA; Fraction V, ICN Corp., No. 810032) solution was prepared in dPBS and was sterile filtered using a […] disposable filter apparatus (Corning No. 25932-200) before use. The 1% BSA solution was used for blocking non-specific binding sites on the plastic wells of the assay plate. The assay plates used were Corning 96-well EIA/RIA plates (No. 25801).
350 ng of human fibronectin contained in 100 μl of dPBS was added to wells of the assay plate. The control wells were filled with dPBS only. The assay plate was incubated at room temperature for exactly two hours to allow the fibronectin to bind to the assay wells. The fibronectin solution was aspirated from the wells of the assay plate and the wells were washed 3× with 200 μl/well of dPBS. The assay wells were filled with the 1% BSA solution. Additional wells, not coated with fibronectin, were also filled with the 1% BSA solution; these wells were used to measure non-specific cell adherence to the plastic assay plate. The assay plate was incubated for 30 minutes at room temperature. The 1% BSA solution was removed from the wells of the assay plate by aspiration using a multichannel pipettor. The assay wells were washed 3× with 200 μl/well of dPBS. Approximately 50 μl of dPBS was added to the assay wells to ensure that they would not dry out prior to the initiation of the assay.
U937 cells were harvested from culture, washed and labeled with calcein AM fluorescent dye as outlined in Example I, except that the concentration of calcein used to label U937 cells was 12.5 μM and cells were sedimented by centrifugation at 1000 rpm for 5 minutes. After the final wash (see Example I), the U937 cells were resuspended in ice-cold PMN Buffer to 1.25×10^5 cells/40 μl. The cell suspension was placed in the dark at room temperature until needed. The asperlin solutions were prepared as described in Example I.
The 50 μl of dPBS remaining in the wells of the assay plate was removed by inverting the assay plate and tapping on paper toweling. 50 μl of the serially diluted asperlin solution was added to wells of the assay plate. Control wells received PMN buffer containing 2% DMSO and the assay plate was incubated for 10 minutes at room temperature.
Calcein labeled cells, that had been gently mixed by swirling, were added to the wells in 40 μl volumes equal to 1.25×10^5 cells/well and 10 μl of PMA solution was immediately added to the wells of the assay plate and the assay was continued as described in Example 1. 100 μl of PMN buffer was added to all wells of the assay plate. The fluorescence of the adherent, activated β1 integrin expressing cells was measured using a fluorescent plate reader, as described in Example I.
The percentage of β1 integrin expressing cells adhering to fibronectin coated wells was quantitated by the equation: % Cells Bound=((Bound Cell Fluorescence-Average Bound Fluorescence of the Non-specific Binding Control).div.Total Cell Fluorescence)×100.

CC(=O)OC1C=CC(=O)OC1C1OC1C [Asperlin, 6,7-Anhydro-2,3,8-trideoxy-D-galacto-oct-2-enoic acidδ-lactone 4-acetate]
% Inhibition Cell Adhesion (Asperlin 1.56 μg/ml): -9% | Average Percent Bound (Asperlin 1.56 μg/ml): 75% | Bound Cell Fluorescence (Asperlin 1.56 μg/ml): 3002 fluorescence units/well and 3140 fluorescence units/well and 3132 fluorescence units/well | Percent Cells Bound (Asperlin 1.56 μg/ml): 75% and 76% and 74% | % Inhibition Cell Adhesion (Asperlin 3.125 μg/ml): -9% | Average Percent Bound (Asperlin 3.125 μg/ml): 75% | Bound Cell Fluorescence (Asperlin 3.125 μg/ml): 3132 fluorescence units/well and 3140 fluorescence units/well and 2895 fluorescence units/well | Percent Cells Bound (Asperlin 3.125 μg/ml): 76% and 75% and 73% | % Inhibition Cell Adhesion (Asperlin 6.25 μg/ml): 10% | Average Percent Bound (Asperlin 6.25 μg/ml): 62% | Bound Cell Fluorescence (Asperlin 6.25 μg/ml): 2292 fluorescence units/well and 2344 fluorescence units/well and 2529 fluorescence units/well | Percent Cells Bound (Asperlin 6.25 μg/ml): 60% and 65% | % Inhibition Cell Adhesion (Asperlin 12.5 μg/ml): -1% | Average Percent Bound (Asperlin 12.5 μg/ml): 70% | Bound Cell Fluorescence (Asperlin 12.5 μg/ml): 2331 fluorescence units/well and 2683 fluorescence units/well and 2985 fluorescence units/well | Percent Cells Bound (Asperlin 12.5 μg/ml): 64% and 71% and 74% | % Inhibition Cell Adhesion (Asperlin 25 μg/ml): 0% | Average Percent Bound (Asperlin 25 μg/ml): 69% | Bound Cell Fluorescence (Asperlin 25 μg/ml): 2404 fluorescence units/well and 2870 fluorescence units/well and 2969 fluorescence units/well | Percent Cells Bound (Asperlin 25 μg/ml): 61% and 71% and 75% | % Inhibition Cell Adhesion (Asperlin 50 μg/ml): -6% | Average Percent Bound (Asperlin 50 μg/ml): 73% | Bound Cell Fluorescence (Asperlin 50 μg/ml): 2391 fluorescence units/well and 2791 fluorescence units/well and 3203 fluorescence units/well | Percent Cells Bound (Asperlin 50 μg/ml): 68% and 74% and 77% | % Inhibition Cell Adhesion (Asperlin 100 μg/ml): 0% | Average Percent Bound (Asperlin 100 μg/ml): 69% | Bound Cell Fluorescence (Asperlin 100 μg/ml): 2466 fluorescence units/well and 2854 fluorescence units/well and 3194 fluorescence units/well | Percent Cells Bound (Asperlin 100 μg/ml): 61% and 70% and 75% | % Inhibition Cell Adhesion (Asperlin 200 μg/ml): 3% | Average Percent Bound (Asperlin 200 μg/ml): 67% | Bound Cell Fluorescence (Asperlin 200 μg/ml): 2222 fluorescence units/well and 2736 fluorescence units/well and 2846 fluorescence units/well | Percent Cells Bound (Asperlin 200 μg/ml): 61% and 68% and 71% | Effect on adhesion of β1 integrin expressing cells to fibronectin (in words) (summary of Table II): does not block the adhesion of β1 integrin expressing cells to fibronectin

— patent publication US5912266A, “Beta2 integrin cell adhesion molecule inhibitors” (American Home Products Corporation, priority 1997, dated 1999)
